Our source for the IC50 values is patent publication US6777413B2, “2-[1H]-quinolone and 2-[1H]-quinoxalone inhibitors of factor Xa” (Millennium Pharmaceuticals, Inc., priority 2000, dated 2004).

Broadly, the IC50 is the concentration needed to halve the response being measured. A high value points to weaker potency in that assay.

The target in one test is T1, TRYPSIN (Bos taurus, UniProt P00760).
T1 construct: gene PRSS1
T1 sequence (P00760 24-246): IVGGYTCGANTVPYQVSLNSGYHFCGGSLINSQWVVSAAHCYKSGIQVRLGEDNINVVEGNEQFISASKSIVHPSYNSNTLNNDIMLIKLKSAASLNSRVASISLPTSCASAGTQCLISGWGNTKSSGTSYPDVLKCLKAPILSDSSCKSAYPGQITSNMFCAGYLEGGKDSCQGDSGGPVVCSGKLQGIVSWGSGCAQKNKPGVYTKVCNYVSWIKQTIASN
Description: trypsin protease inhibition. Format: biochemical.

A further test deals with prothrombinase complex (Homo sapiens, UniProt P00742). Put plainly: prothrombinase inhibition assay (IIASE). Format: biochemical. The note with it: plasma free system, Chromozym TH. The protocol:
The prothrombinase inhibition assay is performed in a plasma free system with modifications to the method described by Sinha, U. et al., Thromb. […] Specifically, the activity of the prothrombinase complex is determined by measuring the time course of thrombin generation using the p-nitroanilide substrate Chromozym TH. […] Aliquots from the complex-inhibitor mixture are added to prothrombin (1 nM) and Chromozym TH (0.1 mM). […] Eight different concentrations of inhibitor are assayed in duplicate. A standard curve of thrombin generation by an equivalent amount of untreated complex is used for determination of percent inhibition.

In the next test the target is factor Xa (Homo sapiens, UniProt P00742). Description: factor Xa amidolytic assay (XA).
For another test, the target named is thrombin (Homo sapiens, UniProt P00734). Put plainly: thrombin amidolytic assay (IIA).

Sequence of prothrombinase complex (P00742 235-488 limits assumed): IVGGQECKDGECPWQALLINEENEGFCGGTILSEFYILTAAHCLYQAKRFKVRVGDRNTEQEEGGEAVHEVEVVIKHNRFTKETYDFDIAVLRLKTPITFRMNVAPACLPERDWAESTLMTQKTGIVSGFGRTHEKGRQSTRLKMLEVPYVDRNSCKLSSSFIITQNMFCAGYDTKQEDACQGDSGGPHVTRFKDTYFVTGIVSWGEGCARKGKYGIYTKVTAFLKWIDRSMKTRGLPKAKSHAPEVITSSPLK
Sequence of prothrombinase complex (P00742 41-179 limits assumed): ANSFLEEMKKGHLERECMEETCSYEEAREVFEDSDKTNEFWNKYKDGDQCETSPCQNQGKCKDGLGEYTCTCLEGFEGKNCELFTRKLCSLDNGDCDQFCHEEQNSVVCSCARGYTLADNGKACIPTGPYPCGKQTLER
Sequence of prothrombinase complex (P12259 29-737 partner limits assumed): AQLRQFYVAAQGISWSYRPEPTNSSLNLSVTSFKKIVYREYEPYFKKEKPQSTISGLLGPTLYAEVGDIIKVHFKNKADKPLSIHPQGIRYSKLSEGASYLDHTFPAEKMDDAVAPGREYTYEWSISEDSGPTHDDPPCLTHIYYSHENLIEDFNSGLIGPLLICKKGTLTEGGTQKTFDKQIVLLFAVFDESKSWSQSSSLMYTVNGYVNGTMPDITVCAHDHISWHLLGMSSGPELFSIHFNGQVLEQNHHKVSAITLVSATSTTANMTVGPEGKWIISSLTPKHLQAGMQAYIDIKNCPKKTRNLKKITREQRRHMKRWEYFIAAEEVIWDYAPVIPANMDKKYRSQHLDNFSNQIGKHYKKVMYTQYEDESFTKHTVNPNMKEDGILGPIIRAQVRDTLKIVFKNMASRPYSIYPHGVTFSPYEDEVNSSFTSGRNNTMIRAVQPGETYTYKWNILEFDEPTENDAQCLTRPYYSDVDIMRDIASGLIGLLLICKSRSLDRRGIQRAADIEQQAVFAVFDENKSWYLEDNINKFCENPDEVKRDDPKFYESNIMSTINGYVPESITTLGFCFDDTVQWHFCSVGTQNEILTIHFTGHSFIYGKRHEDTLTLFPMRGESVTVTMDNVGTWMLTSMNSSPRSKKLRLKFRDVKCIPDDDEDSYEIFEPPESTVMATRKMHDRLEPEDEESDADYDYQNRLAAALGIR
Sequence of prothrombinase complex (P12259 1574-2224 partner limits assumed): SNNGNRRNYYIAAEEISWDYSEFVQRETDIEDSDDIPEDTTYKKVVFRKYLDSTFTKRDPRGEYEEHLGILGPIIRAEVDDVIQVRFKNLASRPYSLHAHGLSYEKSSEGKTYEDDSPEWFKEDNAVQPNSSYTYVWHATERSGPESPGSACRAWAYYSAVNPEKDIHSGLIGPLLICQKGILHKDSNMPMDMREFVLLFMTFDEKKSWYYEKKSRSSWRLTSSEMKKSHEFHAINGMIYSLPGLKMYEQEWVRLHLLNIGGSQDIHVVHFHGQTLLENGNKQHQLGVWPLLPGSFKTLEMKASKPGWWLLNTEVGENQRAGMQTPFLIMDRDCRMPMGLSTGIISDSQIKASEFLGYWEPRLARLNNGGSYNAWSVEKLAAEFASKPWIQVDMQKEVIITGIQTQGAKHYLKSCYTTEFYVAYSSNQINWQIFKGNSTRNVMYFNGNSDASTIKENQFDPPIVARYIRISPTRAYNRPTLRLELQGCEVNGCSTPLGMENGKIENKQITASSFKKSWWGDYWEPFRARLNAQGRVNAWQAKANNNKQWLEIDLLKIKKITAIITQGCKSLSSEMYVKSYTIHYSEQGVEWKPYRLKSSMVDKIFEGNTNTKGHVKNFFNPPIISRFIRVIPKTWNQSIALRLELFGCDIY
Sequence of factor Xa (P00742 235-488 limits assumed): as the sequence (P00742 235-488 limits assumed) above
Sequence of factor Xa (P00742 41-179 limits assumed): as the sequence (P00742 41-179 limits assumed) above
Description for factor Xa: In the assays for thrombin, prothrombinase and factor Xa, a synthetic chromogenic substrate is added to a solution containing test compound and the enzyme of interest and the residual catalytic activity of that enzyme is determined spectrophotometrically. The IC50 of a compound is determined from the substrate turnover. […] The factor Xa and thrombin assays are performed at room temperature, in 0.02 M Tris·HCl buffer, pH 7.5, containing 0.15 M NaCl.

On to `CN1CCC(Oc2ccc3c(ccc(=O)n3Cc3ccc4ccc(C(=N)N)cc4c3)c2)CC1` [Example 16], for which the IC50 against TRYPSIN worked out at 0.315 µM; against prothrombinase complex, 2.58 µM; against factor Xa, 0.209 µM; against thrombin it was 399 µM.
With `N=C(N)c1cccc(-c2ccccc2Cn2c(=O)ccc3cc(OC4CCNCC4)ccc32)c1` [Example 11], the IC50 against TRYPSIN came out at 0.289 µM; against prothrombinase complex, 2.18 µM; on factor Xa, 41.9 µM; on thrombin it was 2.48 µM.
In the same order, the values of `N=C(N)c1ccc2ccc(Cn3c(=O)ccc4cc(OC5CCN(c6ncccn6)CC5)ccc43)cc2c1` [Example 18] are 0.656 µM, 3.25 µM, 0.58 µM and 75 µM.
In the case of `N=C(N)c1cccc(-c2cccc(Cn3c(=O)ccc4cc(OC5CCNCC5)ccc43)c2)c1` [Example 5], the IC50 worked out at 0.263 µM at TRYPSIN, 46.3 µM on prothrombinase complex, 1.57 µM at factor Xa and 6.59 µM on thrombin.
Taken in the same sequence, the figures for `N=C(N)c1ccc(-c2ccc(Cn3c(=O)ccc4cc(OC5CCNCC5)ccc43)cc2)cc1` [Example 12] were 4.41 µM, 15.5 µM, 70 µM and 9.13 µM.
As to `CC(=N)N1CCC(Oc2ccc3c(ccc(=O)n3Cc3ccc(-c4cccc(C(=N)N)c4)cc3)c2)CC1` [Example 7], the concentration for half-maximal inhibition (IC50) against TRYPSIN is 4.29 µM; against prothrombinase complex, 0.362 µM; against factor Xa, 0.0823 µM; on thrombin, 45 µM.
Taken in the same sequence, the figures for `N=C(N)c1ccc(-c2ccccc2Cn2c(=O)ccc3cc(OC4CCNCC4)ccc32)cc1` [Example 8] were 56.6 µM, 1.92 µM, 501 µM and 1.7 µM.
Taken in the same sequence, the figures for `N=C(N)c1cccc(-c2ccc(Cn3c(=O)ccc4cc(OC5CCNCC5)ccc43)cc2)c1` [Example 6] were 3.63 µM, 38.2 µM, 4.94 µM and 58.8 µM.
Taken in the same sequence, the figures for `CC(=N)N1CCC(Oc2ccc3c(ccc(=O)n3Cc3ccccc3-c3ccc(C(=N)N)cc3)c2)CC1` [Example 10] were 52.5 µM, 1.2 µM, 137 µM and 0.995 µM.
Consider `N=C(N)c1ccc2ccc(Cn3c(=O)ccc4cc(OC5CCNCC5)ccc43)cc2c1` [Example 1], for which the IC50 worked out at 0.0772 µM at TRYPSIN, 9.11 µM against prothrombinase complex, 0.151 µM against factor Xa and 122 µM against thrombin.
Turning to `CC(=N)N1CCC(Oc2ccc3c(ccc(=O)n3Cc3cccc(-c4ccc(C(=N)N)cc4)c3)c2)CC1` [Example 15], the half-inhibitory concentration (IC50) was found to be 3.37 µM at TRYPSIN, 33.5 µM against prothrombinase complex, 18.8 µM against factor Xa and 30.4 µM against thrombin.
Turning to `CCn1c(Cn2c(=O)ccc3cc(OC4CCN(C(C)=N)CC4)ccc32)cc2ccc(C(=N)N)cc21` [Example 14], the IC50 against TRYPSIN was found to be 0.0104 µM; on prothrombinase complex, 0.0143 µM; against factor Xa, 0.00474 µM; against thrombin it was 0.0693 µM.
As to `CC(=N)N1CCC(Oc2ccc3c(ccc(=O)n3Cc3ccc(-c4ccc(C(=N)N)cc4)cc3)c2)CC1` [Example 13], the IC50 came out at 1.91 µM on TRYPSIN, 8.63 µM against prothrombinase complex, 50 µM at factor Xa and 3 µM at thrombin.
As to `CC(=N)N1CCC(Oc2ccc3c(ccc(=O)n3Cc3ccccc3-c3cccc(C(=N)N)c3)c2)CC1` [Example 9], the 50% inhibitory concentration (IC50) against TRYPSIN amounted to 0.847 µM; against prothrombinase complex, 0.697 µM; against factor Xa it was 2.55 µM.
As for `CCn1c(Cn2c(=O)ccc3cc(OC4CCN(C(C)=N)CC4)ccc32)cc2ccc(C(=N)NN)cc21` [Example 17], the IC50 worked out at 0.832 µM against TRYPSIN, 1.21 µM on prothrombinase complex, 0.514 µM at factor Xa and 11 µM on thrombin.
`CC(=N)N1CCC(Oc2ccc3c(ccc(=O)n3Cc3cccc(-c4cccc(C(=N)N)c4)c3)c2)CC1` [Example 4]: the IC50 against TRYPSIN amounted to 0.0477 µM; at prothrombinase complex it was 0.157 µM; against factor Xa it was 0.0118 µM; against thrombin, 4.56 µM.
